Results: ChEMBL document CHEMBL3627675, “Protective effects of the bioactive natural product N-trans-Caffeoyldopamine on hepatotoxicity induced by isoniazid and rifampicin” (2015)
Calls of active or inactive are those of the source. The rule behind the calls is not given here.

Assays:
[1] = system: Rattus norvegicus; experiment: Protective activity against isoniazid and rifampicin-induced hepatotoxicity in Wistar rat assessed as increase of GSH activity at 2.5 mg/kg, po (reference value: 29.4 +/- 11.4 uM/gram); type: functional
[2] = system: Rattus norvegicus; experiment: Protective activity against isoniazid and rifampicin-induced hepatotoxicity in Wistar rat assessed as reduction of serum AST level at 2.5 mg/kg, po (reference value: 168.5 +/- 14.7 U); type: functional
[3] = system: Rattus norvegicus; experiment: Protective activity against isoniazid and rifampicin-induced hepatotoxicity in Wistar rat assessed as reduction of MDA level at 2.5 mg/kg, po (reference value: 30.5 +/- 7.8 nM/mg); type: functional
[4] = organism: Rattus norvegicus; experiment: Protective activity against isoniazid and rifampicin-induced hepatotoxicity in Wistar rat by haematoxylin and eosin staining; type: functional, organism-based
[5] = system: Rattus norvegicus; experiment: Protective activity against isoniazid and rifampicin-induced hepatotoxicity in Wistar rat assessed as reduction of serum ALT level at 2.5 mg/kg, po (reference value: 143.7 +/- 12.5 U); type: functional
[6] = organism: Rattus norvegicus; experiment: Protective activity against isoniazid and rifampicin-induced hepatotoxicity in Wistar rat assessed as decrease of CYP2E1 mRNA expression in liver; type: functional, organism-based
[7] = system: Rattus norvegicus; experiment: Protective activity against isoniazid and rifampicin-induced hepatotoxicity in Wistar rat assessed as increase of SOD activity at 2.5 mg/kg, po (reference value: 31.4 +/- 8.3 U/mg); type: functional

## O=C(O)/C=C/c1ccc(O)c(O)c1 [CAFFEIC ACID]
[1]
  Activity: 42.9 µmol/g
[2]
  Activity: 115.6 U
[3]
  Activity: 23.5 nM/mg
[4]
  Activity: Active
[5]
  Activity: 102.9 U
[6]
  Activity: Active
[7]
  Activity: 48 U/mg

## O=C(/C=C/c1ccc(O)c(O)c1)NCCc1ccc(O)c(O)c1
[1]
  Activity: 49 µmol/g
[2]
  Activity: 86.4 U
[3]
  Activity: 14.8 nM/mg
[4]
  Activity: Active
[5]
  Activity: 80.6 U
[6]
  Activity: Active
[7]
  Activity: 57 U/mg
